According to patent US20220298138A1, “ENZYME INHIBITORS” (KALVISTA PHARMACEUTICALS LIMITED, priority 2019, published 2022):

What was measured:
[1] = molecular target: T1, Human Factor XIIa (Homo sapiens, UniProt P00748); assay: Factor XIIa inhibitory activity in vitro (fluorogenic substrate H-DPro-Phe-Arg-AFC); assay type: biochemical; settings: 25° C., class symbols, read-out: Human FXIIa IC50
T1 construct: purchased Enzyme Research Laboratories
T1 sequence (P00748 373-615 limits assumed): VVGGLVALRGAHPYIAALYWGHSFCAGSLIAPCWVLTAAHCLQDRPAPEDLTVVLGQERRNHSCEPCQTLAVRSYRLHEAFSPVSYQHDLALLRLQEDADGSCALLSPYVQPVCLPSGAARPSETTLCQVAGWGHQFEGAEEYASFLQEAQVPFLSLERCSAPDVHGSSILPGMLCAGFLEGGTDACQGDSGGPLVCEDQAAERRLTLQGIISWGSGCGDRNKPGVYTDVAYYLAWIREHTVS
How it was run: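 Enzyme incubated at 25° C with fluorogenic substrate H-DPro-Phe-Arg-AFC and a range of compound concentrations. Residual activity taken as initial reaction rate from […], giving IC50.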

[2] = molecular target: T2, Human FXIa (Homo sapiens, UniProt P03951); assay: FXIa inhibitory activity in vitro (fluorogenic substrate Z-Gly-Pro-Arg-AFC), selectivity; assay type: biochemical; settings: category scale, 25° C.
T2 construct: Human FXIa (Enzyme Research Laboratories) was incubated; purchased Enzyme Research Laboratories
T2 sequence (P03951 388-625 limits assumed): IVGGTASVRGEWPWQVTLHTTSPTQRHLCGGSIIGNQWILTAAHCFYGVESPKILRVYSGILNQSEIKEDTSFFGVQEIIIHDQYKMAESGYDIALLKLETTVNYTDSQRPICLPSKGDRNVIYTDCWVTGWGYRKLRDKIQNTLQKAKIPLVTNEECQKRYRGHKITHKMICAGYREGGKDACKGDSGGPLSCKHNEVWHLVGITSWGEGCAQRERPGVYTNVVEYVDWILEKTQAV
T2 sequence (P03951 19-387 partner limits assumed): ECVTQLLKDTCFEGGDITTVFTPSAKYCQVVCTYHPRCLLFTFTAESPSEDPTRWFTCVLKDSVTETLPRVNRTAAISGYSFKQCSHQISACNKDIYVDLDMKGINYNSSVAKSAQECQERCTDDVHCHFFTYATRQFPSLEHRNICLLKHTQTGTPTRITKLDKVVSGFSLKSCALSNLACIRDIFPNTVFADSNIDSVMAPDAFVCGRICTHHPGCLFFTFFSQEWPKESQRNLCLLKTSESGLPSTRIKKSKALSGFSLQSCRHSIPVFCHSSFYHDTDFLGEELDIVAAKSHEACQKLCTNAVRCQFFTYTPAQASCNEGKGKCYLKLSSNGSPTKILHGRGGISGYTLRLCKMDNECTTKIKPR
Experimental: Determination of the % Inhibition for FXIa
Human FXIa (Enzyme Research Laboratories) was incubated at 25° C. with the fluorogenic substrate Z-Gly-Pro-Arg-AFC and various concentrations of the test compound. Residual enzyme activity (initial rate of reaction) was determined by measuring the change in fluorescence at 410 nm and the IC50 value for the test compound was determined.

Compound | IC50 [1] | IC50 [2]
N[C@H](CCCCN1CCCC(F)(F)C1)C(=O)N1CC[C@H]1C(=O)NCc1ccc2[nH]cc(Cl)c2c1 [Example 10.15] | 3 to 10 µM | > 40 µM
O=C(NCc1ccc2[nH]cc(Cl)c2c1)[C@@H]1CCN1C(=O)CCCCCN1CCCCC1 [Example 10.16] | 10 to 40 µM | > 40 µM
CC(C)N[C@H](COc1ccccc1)C(=O)N1CCC1C(=O)NCc1ccc2[nH]cc(Cl)c2c1 (stereo partly drawn) [Example 10.17] | 10 to 40 µM | 10 to 40 µM
CC(C)N[C@H](Cc1c[nH]c2ccccc12)C(=O)N1CC[C@H]1C(=O)NCc1ccc2[nH]cc(Cl)c2c1 [Example 10.18] | 10 to 40 µM | 10 to 40 µM
Nc1nccc2cc(CNC(=O)[C@H](Cc3ccc(F)c(F)c3)NC(=O)[C@H](N)CCCCN3CCCCC3)ccc12 [Example 12.01] | 0.03 to 0.1 µM | > 40 µM
CC(C)N[C@H](CCCCN1CCCCC1)C(=O)N[C@@H](C)C(=O)NCc1ccc2c(N)nccc2c1 [Example 12.02] | 0.28 to 1 µM | 10 to 40 µM
CC(C)N[C@H](CCCCN1CCCCC1)C(=O)N[C@@H](Cc1ccc(F)c(F)c1)C(=O)NCc1ccc2c(N)nccc2c1 [Example 12.03] | < 0.03 µM | > 40 µM
CC(C)N[C@H](CCCN1CCCCC1)C(=O)N[C@@H](Cc1ccc(F)c(F)c1)C(=O)NCc1ccc2c(N)nccc2c1 [Example 12.04] | 0.28 to 1 µM | 10 to 40 µM
CC(C)N[C@H](CCCCN1CCCCC1)C(=O)N[C@@H](Cc1c[nH]c2ccccc12)C(=O)NCc1ccc2c(N)nccc2c1 [Example 12.05] | 0.03 to 0.1 µM | 3 to 10 µM
CC(C)N[C@H](CCCCN1CCCCC1)C(=O)N[C@@H](Cc1cccc2ccccc12)C(=O)NCc1ccc2c(N)nccc2c1 [Example 12.06, (2R)—N-[(1S)-1-{[(1-Aminoisoquinolin-6-yl)methyl]carbamoyl}-2-(naphthalen-1-yl)ethyl]-2-(isopropylamino)-6-(piperidin-1-yl)hexanamide] | < 0.03 µM | 3 to 10 µM
CC(C)N[C@H](CCCCN1CCCCC1)C(=O)N[C@@H](Cc1csc2ccccc12)C(=O)NCc1ccc2c(N)nccc2c1 [Example 12.07] | < 0.03 µM | 1 to 3 µM
CC(C)N[C@H](CCCCN1CCCCC1)C(=O)N[C@@H](Cc1ccc2ccccc2c1)C(=O)NCc1ccc2c(N)nccc2c1 [Example 12.08] | 1 to 3 µM | 10 to 40 µM
COc1ccc(C[C@H](NC(=O)[C@@H](CCCCN2CCCCC2)NC(C)C)C(=O)NCc2ccc3c(N)nccc3c2)cc1 [Example 12.09] | 1 to 3 µM | > 40 µM
CC(C)N[C@H](CCCCN1CCCCC1)C(=O)N[C@@H](Cc1ccc(-c2ccccc2)cc1)C(=O)NCc1ccc2c(N)nccc2c1 [Example 12.10] | 3 to 10 µM | > 40 µM
Nc1nccc2cc(CNC(=O)[C@H](Cc3ccc(F)c(F)c3)NC(=O)CCCCCN3CCCCC3)ccc12 [Example 12.11] | 0.28 to 1 µM | > 40 µM
Nc1nccc2cc(CNC(=O)[C@@H]3CCN3C(=O)[C@H](N)CCc3ccccc3)ccc12 [Example 17.05] | 0.28 to 1 µM | 10 to 40 µM
Nc1nccc2cc(CNC(=O)C3CC4CCC3N(C(=O)[C@H](N)CCc3ccccc3)C4)ccc12 (stereo partly drawn) [Example 17.06] | 3 to 10 µM | 1 to 3 µM
Nc1nccc2cc(CNC(=O)[C@H]3CCC[C@@H]3NC(=O)[C@H](N)CCc3ccccc3)ccc12 [Example 17.07] | 10 to 40 µM | 3 to 10 µM
CN[C@H](CCc1ccccc1)C(=O)N1CC[C@H]1C(=O)NCc1ccc2c(N)nccc2c1 [Example 17.08] | 0.28 to 1 µM | > 40 µM
CC(C)N[C@H](CCc1ccccc1)C(=O)N1CC[C@H]1C(=O)NCc1ccc2c(N)nccc2c1 [Example 17.09, (2S)—N-[(1-aminoisoquinolin-6-yl)methyl]-1-[(2R)-2-(isopropylamino)-4-phenylbutanoyl]azetidine-2-carboxamide] | 0.1 to 0.279 µM | 10 to 40 µM
CC(C)N[C@H](CCCCN1CCCCC1)C(=O)N1CC[C@H]1C(=O)NCc1ccc2c(N)nccc2c1 [Example 17.10] | 0.28 to 1 µM | > 40 µM
CC(C)N[C@H](CCCN1CCCCC1)C(=O)N1CC[C@H]1C(=O)NCc1ccc2c(N)nccc2c1 [Example 17.11] | 0.28 to 1 µM | > 40 µM
CC(C)(NS(=O)(=O)c1ccc2ccccc2c1)C(=O)NCc1ccc2c(N)nccc2c1 [Example 18.105] | 10 to 40 µM | 10 to 40 µM
Nc1nccc2cc(CNC(=O)CNC(=O)c3ccc(N4CCOCC4)cc3)ccc12 [Example 18.106] | 10 to 40 µM | > 40 µM
Nc1nccc2cc(CNC(=O)CNC(=O)c3ccc4ccccc4n3)ccc12 [Example 18.107] | 10 to 40 µM | > 40 µM
Nc1nccc2cc(CNC(=O)CNC(=O)c3ccc(-c4ccncc4)cc3)ccc12 [Example 18.108] | 10 to 40 µM | > 40 µM

Compound | IC50 [1] | IC50 [2]
Nc1nccc2cc(CNC(=O)CNC(=O)C(CCc3ccccc3)N3CCNCC3)ccc12 (stereo not drawn) [Example 18.109] | 10 to 40 µM | > 40 µM
CC(C)N[C@H](CCc1ccccc1)C(=O)N1CCC[C@H]1C(=O)NCc1cnc2[nH]cc(Cl)c2c1 [Example 27.01] | 0.28 to 1 µM | > 40 µM
CC(C)N[C@H](CCCCN1CCCCC1)C(=O)N1CCC[C@H]1C(=O)NCc1cnc2[nH]cc(Cl)c2c1 [Example 27.02] | 0.1 to 0.279 µM | 3 to 10 µM
CC(C)N[C@H](CCCCN1CCCCC1)C(=O)N[C@@H](Cc1ccc(F)c(F)c1)C(=O)NCc1ccc2[nH]cc(Cl)c2c1 [Example 27.03] | < 0.03 µM | 10 to 40 µM
CC(C)N[C@H](CCCCN1CCCCC1)C(=O)N[C@@H](Cc1ccc(F)c(F)c1)C(=O)NCc1cnc2[nH]cc(Cl)c2c1 [Example 27.04] | 0.03 to 0.1 µM | > 40 µM
N[C@H](CCCCN1CCCCC1)C(=O)N[C@@H](Cc1ccc(F)c(F)c1)C(=O)NCc1cnc2[nH]cc(Cl)c2c1 [Example 27.06] | 0.03 to 0.1 µM | > 40 µM
CC(C)N[C@H](CCCCN1CCCCC1)C(=O)N[C@@H](Cc1ccc(F)c(F)c1)C(=O)NCc1cccs1 [Example 27.07] | 3 to 10 µM | > 40 µM
CC(C)N[C@H](CCc1ccccc1)C(=O)N1CC[C@H]1C(=O)NCc1cnc2[nH]cc(Cl)c2c1 [Example 27.08] | 0.28 to 1 µM | > 40 µM
C[C@@H]1CCC[C@H](C)N1CC(=O)N1CCC(C(=O)NCc2ccc3c(N)nccc3c2)C1 (stereo partly drawn) [Example 32.10] | 10 to 40 µM | > 40 µM
C[C@@H]1CCC[C@H](C)N1CC(=O)N1CC[C@H]1C(=O)NCc1ccc2c(N)nccc2c1 [Example 32.11] | 3 to 10 µM | 10 to 40 µM
C[C@@H]1CCC[C@H](C)N1CC(=O)N1CC(C(=O)NCc2ccc3c(N)nccc3c2)C1 [Example 32.12] | 10 to 40 µM | > 40 µM
C[C@@H]1CCC[C@H](C)N1CC(=O)N1C[C@H]2[C@@H]([C@H]1C(=O)NCc1ccc3c(N)nccc3c1)C2(C)C [Example 32.13] | 10 to 40 µM | > 40 µM
C[C@@H]1CCC[C@H](C)N1CC(=O)N1CC2CC(C(=O)NCc3ccc4c(N)nccc4c3)C1C2 (stereo partly drawn) [Example 32.14] | 10 to 40 µM | > 40 µM
C[C@@H]1CCC[C@H](C)N1CC(=O)N[C@H]1CCC[C@@H]1C(=O)NCc1ccc2c(N)nccc2c1 [Example 32.15] | 10 to 40 µM | > 40 µM
C[C@@H]1CCC[C@H](C)N1CC(=O)NC1(C(=O)NCc2ccc3c(N)nccc3c2)CC1 [Example 39.09] | 3 to 10 µM | > 40 µM
C[C@@H]1CCC[C@H](C)N1CC(=O)NC1(C(=O)NCc2ccc3c(N)nccc3c2)CCC1 [Example 39.10] | 3 to 10 µM | 10 to 40 µM
C[C@@H]1CCC[C@H](C)N1CC(=O)NC1(C(=O)NCc2ccc3c(N)nccc3c2)CCOCC1 [Example 39.11] | 10 to 40 µM | > 40 µM
CC(=O)N1C[C@H](c2ccccc2)C[C@H]1C(=O)NCc1ccc2c(N)nccc2c1 [Example 43.01] | 3 to 10 µM | > 40 µM
C[C@@H]1CCC[C@H](C)N1CC(=O)N1C[C@H](c2ccccc2)C[C@H]1C(=O)NCc1ccc2c(N)nccc2c1 [Example 43.02] | 0.28 to 1 µM | 10 to 40 µM
Nc1nccc2cc(CNC(=O)[C@@H]3C[C@@H](c4ccccc4)CN3C(=O)[C@H](N)CCc3ccccc3)ccc12 [Example 43.03] | 0.28 to 1 µM | 10 to 40 µM
CC(C)(O)C(=O)N1C[C@H](c2ccccc2)C[C@H]1C(=O)NCc1ccc2c(N)nccc2c1 [Example 43.04] | 10 to 40 µM | 10 to 40 µM
Nc1nccc2cc(CNC(=O)[C@@H]3C[C@@H](c4ccccc4)CN3CC3CCNCC3)ccc12 [Example 43.05] | 10 to 40 µM | > 40 µM
Nc1nccc2cc(CNC(=O)[C@@H]3C[C@@H](c4ccccc4)CN3C(=O)[C@@H]3CCCN3)ccc12 [Example 43.06] | 1 to 3 µM | 10 to 40 µM
CNC(C)(C)C(=O)N1C[C@H](c2ccccc2)C[C@H]1C(=O)NCc1ccc2c(N)nccc2c1 [Example 43.07] | 3 to 10 µM | 10 to 40 µM
C[C@H](NC(=O)[C@H]1C[C@@H](c2ccccc2)CN1)C(=O)NCc1ccc2c(N)nccc2c1 [Example 45.01] | 0.28 to 1 µM | 3 to 10 µM
